Measurements reported in patent US7678784B2, “Oxime-containing macrocyclic acyl guanidines as β-secretase inhibitors” (Bristol-Myers Squibb Company, priority 2006, dated 2010).

System: not given
Assay: not given
Conditions: from C=CCCCCN(CC(=O)Nc1c(Cl)cc(CNC(=NC(=O)CC(=NOCC)c2ccc(OCC=C)cc2)NC(=O)OC(C)(C)C)cc1Cl)C(=O)OC(C)(C)C; rcm bond; Grubbs 1st generation catalyst; dichloromethane; 2.93 mM; 65.0 °C; 2.0 h
`CCON=C1CC(=O)N=C(NC(=O)OC(C)(C)C)NCc2cc(Cl)c(c(Cl)c2)NC(=O)CN(C(=O)OC(C)(C)C)CCCCC=CCOc2ccc1cc2` gave a ring closure, yield of all isomers of 80.5%.

Same assay, conditions: from C=CCCCN(CC(=O)Nc1c(Cl)cc(CNC(=NC(=O)CC(=NOCC)c2ccc(OCC=C)cc2)NC(=O)OC(C)(C)C)cc1Cl)C(=O)OC(C)(C)C; rcm bond; Grubbs 1st generation catalyst; dichloromethane; 2.62 mM; 65.0 °C; 1.5 h
For `CCON=C1CC(=O)N=C(NC(=O)OC(C)(C)C)NCc2cc(Cl)c(c(Cl)c2)NC(=O)CN(C(=O)OC(C)(C)C)CCCC=CCOc2ccc1cc2`, the ring closure, yield of all isomers was 82.9%.

Same assay, conditions: from C=CCCN(CC(=O)Nc1c(Cl)cc(CNC(=NC(=O)CC(=NOCC)c2ccc(OCC=C)cc2)NC(=O)OC(C)(C)C)cc1Cl)C(=O)OC(C)(C)C; rcm bond; Grubbs 1st generation catalyst; dichloromethane; 3.0 mM; 65.0 °C; 4.0 h
For `CCON=C1CC(=O)N=C(NC(=O)OC(C)(C)C)NCc2cc(Cl)c(c(Cl)c2)NC(=O)CN(C(=O)OC(C)(C)C)CCC=CCOc2ccc1cc2`, the ring closure, yield of all isomers was 69.1%.

Same assay, conditions: from C=CCOc1ccc(C(CC(=O)N=C(NCc2cc(Cl)c(NC(=O)CN(CC=C)C(=O)OC(C)(C)C)c(Cl)c2)NC(=O)OC(C)(C)C)=NOCC)cc1; rcm bond; Grubbs 1st generation catalyst; dichloromethane; 2.85 mM; 65.0 °C; 4.0 h
`CCON=C1CC(=O)N=C(NC(=O)OC(C)(C)C)NCc2cc(Cl)c(c(Cl)c2)NC(=O)CN(C(=O)OC(C)(C)C)CC=CCOc2ccc1cc2` showed a ring closure, yield of all isomers of 82.8%.

Target: T1, BACE1 enzyme (Homo sapiens, UniProt P56817)
T1 construct: The HEK293-9B.A1 cell line, which overexpresses the BACE1 enzyme, was derived from HEK293 cells; endogenous in cells; washed 48,000 x g pellet of cell homogenate
T1 sequence (P56817 46-501): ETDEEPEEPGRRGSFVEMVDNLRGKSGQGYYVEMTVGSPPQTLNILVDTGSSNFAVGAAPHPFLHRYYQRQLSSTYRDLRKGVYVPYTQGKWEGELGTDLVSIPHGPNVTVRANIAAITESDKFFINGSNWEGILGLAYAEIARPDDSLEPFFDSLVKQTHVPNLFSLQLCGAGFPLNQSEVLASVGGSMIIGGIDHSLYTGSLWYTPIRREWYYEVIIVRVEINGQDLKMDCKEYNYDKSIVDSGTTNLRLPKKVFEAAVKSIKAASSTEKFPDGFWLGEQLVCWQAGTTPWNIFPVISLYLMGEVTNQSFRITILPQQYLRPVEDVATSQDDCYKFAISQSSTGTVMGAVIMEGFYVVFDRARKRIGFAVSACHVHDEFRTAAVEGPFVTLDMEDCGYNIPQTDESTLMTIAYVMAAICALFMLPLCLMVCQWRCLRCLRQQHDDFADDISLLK
Assay: Radioligand displacement assay with a radiolabeled BACE inhibitor on HEK293-9B.A1 cell homogenate
Type: binding
Conditions: displacement of 1 nM tritiated radioligand, HEK293-9B.A1 homogenate, pH 5.0, 1.5 hr at 25° C.; read-out: Activity Rating (Activity based on IC50 values)
Description: There are a number of methods by which inhibitors of the BACE enzyme can be identified experimentally. The enzyme can be obtained from membrane samples from natural tissues or cultured cells or can be expressed recombinantly in a host cell by well known methods of molecular biology. The whole enzyme or a portion thereof can be expressed, for example, in bacterial, insect or mammalian cells to obtain a catalytically active enzyme species. The enzymatic activity and/or ligand binding capability of the enzyme can be assessed within these membrane samples, or the enzyme can be purified to varying extents. As an illustrative example, the nucleic acid sequence encoding the pro and catalytic domains of human BACE can be appended on the 5′ end with an untranslated and signal sequence from the gene for acetylcholinesterase, and on the 3′ end with a sequence encoding a poly-histidine tag. This cDNA can then be expressed in Drosophila melanogaster S2 cells in which the signal and pro sequences of the transcribed/translated protein are removed by cellular proteases and the catalytic domain, appended by a C-terminal poly-histidine tag, is secreted out into the cellular medium. The enzyme can then be purified from the culture medium by nickel affinity chromatography by methods well known to those trained in the art [Mallender, W. et al., “Characterization of recombinant, soluble beta-secretase from an insect cell expression system.” Mol. Pharmacol. 2001, 59: 619-626]. Similar strategies for expressing and purifying various forms of BACE in bacterial, mammalian and other cell types would be known to one skilled in the art. A preferred method for determining the potency of a test compound in binding to the BACE enzyme is by monitoring the displacement of a suitable radioligand.
Radioligand displacement assays with a radiolabeled BACE inhibitor (WO 2004 013098, compound 3, where the methoxy group is substituted for C(^3H)3) were carried out using standard methods (Keen, M. (1999) in Receptor Binding Techniques (Walker, J. M. ed) p. 106 Humana Press, Totowa, N.J.). The HEK293-9B.A1 cell line, which overexpresses the BACE1 enzyme, was derived from HEK293 cells (Simmons, N. L. (1990) A cultured human renal epitheloid cell line responsive to vasoactive intestinal peptide. Exp. Physiol. 75:309-19.) by RAGE™ M (Harrington, J. J. et al. (2001) Creation of genome-wide protein expression libraries using random activation of gene expression. Nat. Biotechnol. 19:440-5; U.S. Pat. Nos. 6,410,266 and 6,361,972). T225 flask cultures of HEK293-9B.A1 were grown to 80% confluency in DMEM supplemented with 2 mM L-glutamine, 10 μg/ml penicillin, 10 μg/ml streptomycin, 3 μg/ml puromycin, 100 nM methotrexate, and 10% fetal bovine serum (Invitrogen, Carlsbad, Calif.), harvested, and resuspended at 2×10^8 cells per 10 ml of lysis buffer consisting of 50 mM HEPES pH 7.0 containing a protease inhibitor cocktail of AEBSF 104 μM, aprotinin 80 nM, leupeptin 2 μM, bestatin 4 μM, pepstatin A 1.5 μM, and E-64 1.4 μM (0.1% of protease inhibitor cocktail P8340, Sigma-Aldrich, St. Louis, Mo.) at 4° C. The resuspended cells were homogenized using a Polytron (Brinkman, Westbury, N.Y.) at setting 6 for 10 sec., then centrifuged at 48,000×g for 10 min. The resulting pellet was washed by repeating the resuspension, homogenization and centrifugation steps. The final pellet was resuspended in buffer at 4° C. to yield a total protein concentration of 5 mg/ml, then aliquots were frozen in liquid nitrogen for further storage at −70° C. Immediately before carrying out a binding assay, an aliquot of cell homogenate was thawed and diluted to a concentration of 100 μg/ml in assay buffer consisting of 50 mM HEPES pH 5.0 and 0.1% CHAPSO. […]
Work on `CCON=C1CC(=O)/N=C(\N)NCc2cc(Cl)c(c(Cl)c2)NC(=O)CNCC=CCOc2ccc1cc2` (single isomer, unassigned; isomer a) [Example 1, Isomer A of 4-amino-23,26-dichloro-13-oxa-3,5,18,21-tetraazatricyclo[20.2.2.2^9,12]octacosa-1(24),4,9,11,15,22,25,27-octaene-6,8,20-trione 8-(O-ethyloxime)] yielded an IC50 of over 50 nM.
For `CCON=C1CC(=O)N=C(N)NCc2cc(Cl)c(c(Cl)c2)NC(=O)CNCCC=CCOc2ccc1cc2` (single isomer, unassigned; isomer a) [Example 4, Isomer A of 4-amino-24,27-dichloro-13-oxa-3,5,19,22-tetraazatricyclo-[21.2.2.29,12]nonacosa-1(25),4,9,11,15,23,26,28-octaene-6,8,21-trione 8-(O-ethyloxime)], the IC50 was 5 to 50 nM.
For `CCON=C1CC(=O)N=C(N)NCc2cc(Cl)c(c(Cl)c2)NC(=O)CNCCCC=CCOc2ccc1cc2` (single isomer, unassigned; isomer a) [Example 7, Isomer A of 4-amino-25,28-dichloro-13-oxa-3,5,20,23-tetraazatricyclo[22.2.2.29,12]triaconta-1(26),4,9,11,15,24,27,29-octaene-6,8,22-trione 8-(O-ethyloxime)], the IC50 was under 5 nM.
`CCON=C1CC(=O)/N=C(\N)NCc2cc(Cl)c(c(Cl)c2)NC(=O)CNCC=CCOc2ccc1cc2` (single isomer, unassigned; isomer b) [Example 2, Isomer B of 4-amino-23,26-dichloro-13-oxa-3,5,18,21-tetraazatricyclo-[20.2.2.2^9,12]octacosa-1(24),4,9,11,15,22,25,27-octaene-6,8,20-trione 8-(O-ethyloxime)] showed an IC50 of over 50 nM.
With `CCON=C1CC(=O)N=C(N)NCc2cc(Cl)c(c(Cl)c2)NC(=O)CNCCC=CCOc2ccc1cc2` (single isomer, unassigned; isomer b) [Example 5, Isomer B of 4-amino-24,27-dichloro-13-oxa-3,5,19,22-tetraazatricyclo-[21.2.2.29,12]nonacosa-1(25),4,9,11,15,23,26,28-octaene-6,8,21-trione 8-(O-ethyloxime)] the IC50 was 5 to 50 nM.
In the case of `CCON=C1CC(=O)N=C(N)NCc2cc(Cl)c(c(Cl)c2)NC(=O)CNCCCC=CCOc2ccc1cc2` (single isomer, unassigned; isomer b) [Example 8, Isomer B of 4-amino-25,28-dichloro-13-oxa-3,5,20,23-tetraazatricyclo-[22.2.2.29,12]triaconta-1(26),4,9,11,15,24,27,29-octaene-6,8,22-trione 8-(O-ethyloxime)], the IC50 is reported as under 5 nM.
Work on `CCON=C1CC(=O)N=C(N)NCc2cc(Cl)c(c(Cl)c2)NC(=O)CNCCCCOc2ccc1cc2` [Example 3, 4-Amino-23,26-dichloro-13-oxa-3,5,18,21-tetraazatricyclo[20.2.2.2^9,12]-octacosa-1(24),4,9,11,22,25,27-heptaene-6,8,20-trione 8-(O-ethyloxime)] yielded an IC50 of 5 to 50 nM.
Work on `CCON=C1CC(=O)N=C(N)NCc2cc(Cl)c(c(Cl)c2)NC(=O)CNCCCCCOc2ccc1cc2` [Example 6] yielded an IC50 of 5 to 50 nM.
Work on `CCON=C1CC(=O)N=C(N)NCc2cc(Cl)c(c(Cl)c2)NC(=O)CNCCCCCCOc2ccc1cc2` [Example 9, 4-Amino-25,28-dichloro-13-oxa-3,5,20,23-tetraazatricyclo[22.2.2.2^9,12]-triaconta-1(26),4,9,11,24,27,29-heptaene-6,8,22-trione 8-(O-ethyloxime)] yielded an IC50 of under 5 nM.
`CCON=C1CC(=O)N=C(N)NCc2cc(Cl)c(c(Cl)c2)NC(=O)CNCCCCC=CCOc2ccc1cc2` [Example 10, 4-Amino-26,29-dichloro-13-oxa-3,5,21,24-tetraazatricyclo-[23.2.2.2^9,12]hentriaconta-1(27),4,9,11,15,25,28,30-octaene-6,8,23-trione 8-(O-ethyloxime)] showed an IC50 of under 5 nM.
Compound `CCON=C1CC(=O)N=C(N)NCc2cc(Cl)c(c(Cl)c2)NC(=O)CNCCCCCCCOc2ccc1cc2` [Example 11, 4-Amino-26,29-dichloro-13-oxa-3,5,21,24-tetraazatricyclo-[23.2.2.2^9,12]hentriaconta-1(27),4,9,11,25,28,30-heptaene-6,8,23-trione 8-(O-ethyloxime)] has an IC50 of under 5 nM.
